Inhibition data for 46 compounds are collected here from patent US8022091B2, “Triazole derivative” (Taisho Pharmaceutical Co., Ltd., priority 2006, dated 2011).

In the first test the target is T1, human Edg-1 (S1P1) (Homo sapiens, UniProt P21453).
T1 construct: expressed in transfected cells; host or cells: HEK-293
T1 sequence (P21453 whole entry): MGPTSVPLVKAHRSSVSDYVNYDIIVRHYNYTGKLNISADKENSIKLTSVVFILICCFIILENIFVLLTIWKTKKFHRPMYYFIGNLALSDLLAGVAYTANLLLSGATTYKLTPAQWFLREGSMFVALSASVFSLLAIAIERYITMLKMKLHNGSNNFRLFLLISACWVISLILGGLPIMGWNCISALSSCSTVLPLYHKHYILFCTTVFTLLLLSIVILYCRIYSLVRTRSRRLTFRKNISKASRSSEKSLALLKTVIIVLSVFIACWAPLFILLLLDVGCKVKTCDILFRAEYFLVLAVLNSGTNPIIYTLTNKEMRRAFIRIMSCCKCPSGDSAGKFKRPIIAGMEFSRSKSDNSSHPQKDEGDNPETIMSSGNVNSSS
Briefly: S1P1 binding assay: inhibition of [33P]-S1P binding to membrane fraction of HEK-293 cells transferred with the human Edg-1 (S1P1) gene. The note with it: test compound 10 μM; inhibition of [33P]-S1P binding, membrane fraction. In short, it runs like this: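 Membranes from S1P1-transfected HEK-293 cells incubated 1 h at 30° C in pH 7.4 Tris buffer with fatty acid-free BSA, 0.1 nM [33P]-S1P and test compound (0.1% DMSO). Filter-bound radioactivity was counted; inhibition corrected for binding to untransfected-cell membranes, and IC50 derived from concentration series.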
Turning to `CCn1c(Oc2ccc3cc[nH]c3c2)nnc1[C@@H](C)NS(=O)(=O)c1ccc(C#N)cc1` [Compound 395], at 10 µM the inhibition was 79.1%. Take `CCn1c(Oc2ccc3cc[nH]c3c2)nnc1[C@@H](C)NS(=O)(=O)c1ccc(Cl)cc1Cl` [Compound 398]: the inhibition at 10 µM is 84.7%.

As for `CCn1c(Oc2ccc3cc[nH]c3c2)nnc1[C@@H](C)NS(=O)(=O)c1cc(OC)ccc1OC` [Compound 400], the inhibition at 10 µM came to 75.3%. For the compound `CCn1c(Oc2ccc3cc[nH]c3c2)nnc1[C@@H](C)NS(=O)(=O)c1cccc(Cl)c1` [Compound 403], 10 µM produced 72.5% inhibition. For the compound `CCn1c(Oc2ccc3cc[nH]c3c2)nnc1[C@@H](C)NS(=O)(=O)c1ccc(C(C)C)cc1` [Compound 404], the inhibition at 10 µM came out at 60.2%. On the same count and under the same terms, the result for `CCn1c(Oc2ccc3cc[nH]c3c2)nnc1[C@@H](C)NS(=O)(=O)c1cc(F)cc(Cl)c1C` [Compound 405] reads 61.4%.

Compound `CCc1cc(Br)ccc1S(=O)(=O)N[C@H](C)c1nnc(Oc2ccc3cc[nH]c3c2)n1CC` [Compound 406] showed an inhibition at 10 µM of 56.3%. Still for that read-out and setting: the result for `CCn1c(Oc2ccc3cc[nH]c3c2)nnc1[C@@H](C)NS(=O)(=O)c1ccc(Br)cc1C` [Compound 407] reads 68.2%; that for `CCn1c(Oc2ccc3cc[nH]c3c2)nnc1[C@@H](C)NS(=O)(=O)c1ccc(F)c(F)c1F` [Compound 409], 74.7%; that for `CCn1c(Oc2ccc3cc[nH]c3c2)nnc1[C@@H](C)NS(=O)(=O)c1cc(F)c(F)cc1Cl` [Compound 412], 82.5%. Still for that read-out and setting: the result for `CCn1c(Oc2ccc3cc[nH]c3c2)nnc1[C@@H](C)NS(=O)(=O)c1ccc(F)c(F)c1` [Compound 413] reads 95.3%; that for `CCn1c(Oc2ccc3cc[nH]c3c2)nnc1[C@@H](C)NS(=O)(=O)c1ccc(Br)cc1F` [Compound 414], 92.5%; that for `CCn1c(Oc2ccc3cc[nH]c3c2)nnc1[C@@H](C)NS(=O)(=O)c1cc(F)c(Cl)cc1F` [Compound 415], 91.5%. Same read-out and setting: the same measure for `CCn1c(Oc2ccc3cc[nH]c3c2)nnc1[C@@H](C)NS(=O)(=O)c1cc(Br)c(F)cc1F` [Compound 416]: 83.2%; for `CCn1c(Oc2ccc3cc[nH]c3c2)nnc1[C@@H](C)NS(=O)(=O)c1cc(Cl)c(F)cc1F` [Compound 417]: 90.8%. Take `CCn1c(Oc2ccc3cc[nH]c3c2)nnc1[C@@H](C)NS(=O)(=O)c1c(F)c(Br)cc(F)c1Br` [Compound 420]: the inhibition at 10 µM came out at 61%. For the compound `CCn1c(Oc2ccc3cc[nH]c3c2)nnc1[C@@H](C)NS(=O)(=O)c1cc(C(F)(F)F)ccc1Cl` [Compound 422], testing at 10 µM gave an inhibition of 83.1%. As to `CCn1c(Oc2ccc3cc[nH]c3c2)nnc1[C@@H](C)NS(=O)(=O)c1cccc(F)c1` [Compound 423], at 10 µM the inhibition was 87.8%. On the same count and under the same terms, the result for `CCn1c(Oc2ccc3cc[nH]c3c2)nnc1[C@@H](C)NS(=O)(=O)c1cc(Cl)ccc1OC` [Compound 425] reads 90.1%; that for `CCn1c(Oc2ccc3cc[nH]c3c2)nnc1[C@@H](C)NS(=O)(=O)c1c(C)cc(Cl)cc1Cl` [Compound 426], 92.3%; that for `CCn1c(Oc2ccc3cc[nH]c3c2)nnc1[C@@H](C)NS(=O)(=O)c1cc(F)c(F)cc1F` [Compound 427], 86.5%.

As for `CCn1c(Oc2ccc3cc[nH]c3c2)nnc1[C@@H](C)NS(=O)(=O)c1cc(Br)ccc1Br` [Compound 428], 10 µM produced 81.4% inhibition. As for `CCn1c(Oc2ccc3cc[nH]c3c2)nnc1[C@@H](C)NS(=O)(=O)c1ccc(-c2ccno2)s1` [Compound 429], the inhibition at 10 µM came out at 71.1%. In turn, `CCn1c(Oc2ccc3cc[nH]c3c2)nnc1[C@@H](C)NS(=O)(=O)Cc1cccc(Cl)c1` [Compound 430] showed an inhibition at 10 µM of 50%. Regarding `CCn1c(Oc2ccc3cc[nH]c3c2)nnc1[C@@H](C)NS(=O)(=O)c1ccc(Br)cc1Br` [Compound 431], at 10 µM the inhibition was 80.5%. Still for that read-out and setting: the same measure for `CCn1c(Oc2ccc3cc[nH]c3c2)nnc1[C@@H](C)NS(=O)(=O)c1ccc(F)c(C#N)c1` [Compound 432]: 84.2%; for `CCn1c(Oc2ccc3cc[nH]c3c2)nnc1[C@@H](C)NS(=O)(=O)c1cc(C)cc(C)c1` [Compound 433]: 93.8%. On the same count and under the same terms, the same measure for `CCn1c(Oc2ccc3cc[nH]c3c2)nnc1[C@@H](C)NS(=O)(=O)c1ccc(OC(F)F)cc1` [Compound 434]: 79.5%; for `CCn1c(Oc2ccc3cc[nH]c3c2)nnc1[C@@H](C)NS(=O)(=O)c1cccc(OC(F)F)c1` [Compound 435]: 94.6%; for `CCn1c(Oc2ccc3cc[nH]c3c2)nnc1[C@@H](C)NS(=O)(=O)c1c(F)cc(F)cc1Br` [Compound 436]: 67.5%. With `CCn1c(Oc2ccc3cc[nH]c3c2)nnc1[C@@H](C)NS(=O)(=O)c1cc(F)cc(F)c1` [Compound 437], the inhibition at 10 µM was 97.3%.

`CCn1c(Oc2ccc3cc[nH]c3c2)nnc1[C@@H](C)NS(=O)(=O)c1ccc(Cl)cc1F` [Compound 438] showed an inhibition at 10 µM of 71.6%. The compound `CCn1c(Oc2ccc3cc[nH]c3c2)nnc1[C@@H](C)NS(=O)(=O)c1cc(F)c(F)c(F)c1` [Compound 439] had an inhibition at 10 µM of 98.1%. Same read-out and setting: the same measure for `CCn1c(Oc2ccc3cc[nH]c3c2)nnc1[C@@H](C)NS(=O)(=O)c1ccc(Br)c(C)c1` [Compound 440]: 88.4%; for `CCn1c(Oc2ccc3cc[nH]c3c2)nnc1[C@@H](C)NS(=O)(=O)c1ccc(F)cc1Br` [Compound 441]: 63%. The same measure, in the same setting: the same measure for `CCn1c(Oc2ccc3cc[nH]c3c2)nnc1[C@@H](C)NS(=O)(=O)c1ccc(C(F)(F)F)cc1Br` [Compound 442]: 70.1%. The same measure, in the same setting: the result for `CCn1c(Oc2ccc3cc[nH]c3c2)nnc1[C@@H](C)NS(=O)(=O)c1cc(C(F)(F)F)ccc1Br` [Compound 443] reads 55.7%.

For `CCn1c(Oc2ccc3cc[nH]c3c2)nnc1[C@@H](C)NS(=O)(=O)c1ccc(C)c(F)c1` [Compound 444], the inhibition at 10 µM was found to be 100%.

Consider `CCn1c(Oc2ccc3cc[nH]c3c2)nnc1[C@@H](C)NS(=O)(=O)c1ccc(F)cc1C` [Compound 445], for which testing at 10 µM gave an inhibition of 55.6%. On the same count and under the same terms, the same measure for `CCn1c(Oc2ccc3cc[nH]c3c2)nnc1[C@@H](C)NS(=O)(=O)c1cc(Cl)ccc1F` [Compound 446]: 75.8%; for `CCn1c(Oc2ccc3cc[nH]c3c2)nnc1[C@@H](C)NS(=O)(=O)c1ccc(Br)c(F)c1` [Compound 447]: 95.5%. On the same count and under the same terms, the same measure for `CCn1c(Oc2ccc3cc[nH]c3c2)nnc1[C@@H](C)NS(=O)(=O)c1ccc(Br)cc1Cl` [Compound 448]: 81.1%. Still for that read-out and setting: the same measure for `CCn1c(Oc2ccc3cc[nH]c3c2)nnc1[C@@H](C)NS(=O)(=O)c1cc(C)ccc1F` [Compound 451]: 76.8%; for `CCn1c(Oc2ccc3cc[nH]c3c2)nnc1[C@@H](C)NS(=O)(=O)c1cccc(Cl)c1F` [Compound 452]: 68.9%. As to `CCn1c(Oc2ccc3cc[nH]c3c2)nnc1[C@@H](C)NS(=O)(=O)CC1CCCCC1` [Compound 458], the inhibition at 10 µM is 83.8%.

Still in this test, the particulars now being: test compound at 10 μM; inhibition of [33P]-S1P binding to the membrane fraction of HEK-293 cells expressing human Edg-1 (S1P1).
The compound `CCn1c(Oc2ccc3cc[nH]c3c2)nnc1[C@@H](C)NS(=O)(=O)c1cc(C)ccc1OC` [Compound 393] showed an inhibition at 10 µM of 79.7%.

By inhibition is commonly meant the drop in the measured response relative to a control, in per cent. A high value points to strong suppression.
